Counter-ions that a name gives are not always drawn.
Target: T1, MASP-2 (CCP1-CCP2-SP) (Homo sapiens, UniProt O00187)
T1 construct: 15 μL of Enzyme MASP-2 (CCP1-CCP2-SP) in Assay Buffer
Assay: Enzymatic Assay for MASP-2
Type: biochemical
Settings: fluorogenic substrate based on C2 cleavage site, room temperature, 20 mM HEPES pH 7.4
Protocol: Enzymatic Assay for MASP-2
The MASP-2 assay utilizes a fluorogenic substrate, based on the cleavage site for its natural substrate C2. The assay is run at room temperature in an assay buffer containing 20 mM HEPES, pH 7.4, 140 mM NaCl and 0.1% Tween 20. Assay parameters are adjusted such that the assay is linear with respect to time, enzyme, and substrate concentrations. Under these optimized assays conditions, IC50 values are equivalent to Ki values, except in a few cases of “tight binding” inhibitors. Cases of “tight binding” or possible “slow binding” inhibitors are handled by the methods described in Copeland R. A. (2013) Evaluation of Enzyme Inhibitors in Drug Discovery. 2nd Ed., John Wiley and Sons, Inc., Chapters 5-7.
The MASP-2 assay protocol is carried out as follows. Test compounds are serially diluted in DMSO and then 100 nL of each dilution is transferred to the assay plate(s). 10 μL of Assay Buffer is added, followed by 15 μL of Enzyme MASP-2 (CCP1-CCP2-SP) in Assay Buffer. 15 μL of Substrate in Assay Buffer is then added and mixed to start the reactions. After 20 min at room temperature, 15 μL of a stop solution (0.1 M acetic acid) is added, mixed and the plates are read on a SpectraMax i3x Microplate Reader and exported as Excel files. Each assay plate included a “no inhibitor” (DMSO Only) control, a “no enzyme” control and a reference inhibitor control. % Activity values=100*(average test comp. fluorescence−average “no enzyme” fluorescence)/(average “DMSO only” fluorescence−average “no enzyme” fluorescence). IC50 and Ki values are very reproducible, falling well within ±2-fold.

T1 sequence (O00187 445-686 limits assumed): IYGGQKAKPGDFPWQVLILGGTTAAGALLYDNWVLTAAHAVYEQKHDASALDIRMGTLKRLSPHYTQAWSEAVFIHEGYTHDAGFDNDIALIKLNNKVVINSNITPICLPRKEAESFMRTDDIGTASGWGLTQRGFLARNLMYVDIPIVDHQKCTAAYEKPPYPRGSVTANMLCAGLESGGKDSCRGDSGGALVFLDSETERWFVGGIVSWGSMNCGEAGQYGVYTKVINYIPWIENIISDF
T1 sequence (O00187 298-444 partner limits assumed): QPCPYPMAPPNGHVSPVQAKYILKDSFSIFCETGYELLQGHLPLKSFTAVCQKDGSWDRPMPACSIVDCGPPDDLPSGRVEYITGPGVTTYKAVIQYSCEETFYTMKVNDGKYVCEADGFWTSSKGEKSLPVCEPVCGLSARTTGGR

For Cc1cc2[nH]c(CNC(=O)Cn3c(-c4ccccc4)cnc(NC4(c5ccccc5)CC4)c3=O)cc2cn1 [Compound 76, N-((6-Methyl-1H-pyrrolo[3,2-c]pyridin-2-yl)methyl)-2-(2-oxo-6-phenyl-3-((1-phenylcyclopropyl)amino)pyrazin-1(2H)-yl)acetamide trifluoroacetate], the Ki was less than 500 nM.

O=C(Cn1c(-c2ccccc2)cnc(N[C@@H](Cc2ccc(O)cc2)C(=O)O)c1=O)NCc1cc2cnccc2[nH]1 [Compound 119, trifluoroacetate] was tested, and the Ki was less than 500 nM.

Compound Cc1nc(N)ccc1CNC(=O)Cn1c(C)ncc(NS(=O)(=O)Cc2ccccc2)c1=O [Compound 1, N-((6-Amino-2-Methylpyridin-3-yl)Methyl)-2-(2-Methyl-6-Oxo-5-((Phenylmethyl)Sulfonamido)Pyrimidin-1(6H)-yl)Acetamide, Trifluoro Acetate] has a Ki greater than 10000 nM.

O=C(Cn1c(-c2cccc(CO)c2)cnc(NCCc2ccccc2)c1=O)NCc1cc2cnccc2[nH]1 [Compound 88, N-((1H-Pyrrolo[3,2-c]pyridin-2-yl)methyl)-2-(6-(3-(hydroxymethyl)phenyl)-2-oxo-3-(phenethylamino)pyrazin-1(2H)-yl)acetamide trifluoroacetate] gave a Ki of less than 500 nM.

Work on Cc1nc(N)ccc1CNC(=O)Cn1c(-c2ccccc2)c(Cl)nc(N(C)C)c1=O [Compound 39, N-((6-Amino-2-methylpyridin-3-yl)methyl)-2-(5-chloro-3-(dimethylamino)-2-oxo-6-phenylpyrazin-1(2H)-yl)acetamide] yielded a Ki of 2500 to 10000 nM.

Compound Cc1nc(N)ccc1CNC(=O)Cn1c(C)ncc(NCCc2ccccc2)c1=O [Compound 2, N-((6-Amino-2-Methylpyridin-3-yl)Methyl)-2-(2-Methyl-6-Oxo-5-(Phenethylamino)Pyrimidin-1(6H)-yl)Acetamide, Trifluoroacetate] has a Ki of less than 500 nM.

CC(C)n1cc(-c2cnc(NCCc3ccccc3)c(=O)n2CC(=O)NCc2cc3cnccc3[nH]2)cn1 [Compound 103, N-((1H-Pyrrolo[3,2-c]pyridin-2-yl)methyl)-2-(6-(1-isopropyl-1H-pyrazol-4-yl)-2-oxo-3-(phenethylamino)pyrazin-1(2H)-yl)acetamide] was tested, and the Ki was less than 500 nM.

COc1cccc(CCNc2ncc(-c3ccccc3)n(CC(=O)NCc3cc4cnccc4[nH]3)c2=O)c1 [Compound 136, N-((1H-Pyrrolo[3,2-c]pyridin-2-yl)methyl)-2-(3-((3-methoxyphenethyl)amino)-2-oxo-6-phenylpyrazin-1(2H)-yl)acetamide] showed a Ki of less than 500 nM.

With Cn1nccc1-c1cnc(NCCc2ccccc2)c(=O)n1CC(=O)NCc1cc2cnccc2[nH]1 [Compound 105, N-((1H-Pyrrolo[3,2-c]pyridin-2-yl)methyl)-2-(6-(1-methyl-1H-pyrazol-5-yl)-2-oxo-3-(phenethylamino)pyrazin-1(2H)-yl)acetamide] the Ki was less than 500 nM.

COc1ccccc1-c1cnc(NCCc2ccccc2)c(=O)n1CC(=O)NCc1ccc(N)nc1C [Compound 28, N-((6-Amino-2-methylpyridin-3-yl)methyl)-2-(6-(2-methoxyphenyl)-2-oxo-3-(phenethylamino)pyrazin-1(2H)-yl)acetamide hydrochloride] was tested, and the Ki was less than 500 nM.

Cn1cc(-c2cnc(NCCc3ccccc3)c(=O)n2CC(=O)NCc2cc3cnccc3s2)cn1 [Compound 133, 2-(6-(1-Methyl-1H-Pyrazol-4-yl)-2-Oxo-3-(Phenethylamino)Pyrazin-1(2H)-yl)-N-(Thieno[3,2-c]Pyridin-2-Ylmethyl)Acetamide] gave a Ki of less than 500 nM.

For Cc1nc(N)ccc1CNC(=O)Cn1c(-c2ccccc2Cl)cnc(NCCc2ccccc2)c1=O [Compound 29], the Ki was less than 500 nM.

Cc1nccc2[nH]c(CNC(=O)Cn3c(-c4ccccc4)cnc(NCCc4ccccc4)c3=O)cc12 [Compound 72, trifluoroacetate] was tested, and the Ki was less than 500 nM.

In the case of Cc1cc2[nH]c(CNC(=O)Cn3c(-c4ccccc4)cnc(NCCc4ccccc4)c3=O)cc2cn1 [Compound 67, N-((6-Methyl-1H-Pyrrolo[3,2-c]Pyridin-2-yl)Methyl)-2-(2-Oxo-3-(Phenethylamino)-6-Phenylpyrazin-1(2H)-yl)Acetamide Trifluoroacetate], the Ki is reported as less than 500 nM.

Work on O=C(Cn1c(-c2ccccc2)cnc(NCCC(F)F)c1=O)NCc1cc2cnccc2[nH]1 [Compound 127, N-((1H-Pyrrolo[3,2-c]pyridin-2-yl)methyl)-2-(3-((3,3-difluoropropyl)amino)-2-oxo-6-phenylpyrazin-1(2H)-yl)acetamide trifluoroacetate] yielded a Ki of less than 500 nM.

O=C(Cn1c(-c2ccccc2)cnc(NCCc2ccccc2)c1=O)NCc1cc2cnccc2[nH]1 [Compound 20, N-((1H-Pyrrolo[3,2-c]pyridin-2-yl)methyl)-2-(2-oxo-3-(phenethylamino)-6-phenylpyrazin-1(2H)-yl)acetamide trifluoroacetate] showed a Ki of less than 500 nM.

In the case of O=C(Cn1c(-c2ccccc2)cnc(NCC2(c3ccccc3)CCOC2)c1=O)NCc1cc2cnccc2[nH]1 (centres unmarked) [Compound 50, N-((1H-Pyrrolo[3,2-c]pyridin-2-yl)methyl)-2-(2-oxo-6-phenyl-3-(((3-phenyltetrahydrofuran-3-yl)methyl)amino)pyrazin-1(2H)-yl)acetamide trifluoroacetate], the Ki is reported as less than 500 nM.

Work on O=C(Cn1c(-c2ccccc2)cnc(NCC2(c3ccc(F)cc3)CC2)c1=O)NCc1cc2cnccc2[nH]1 [Compound 59, N-((1H-Pyrrolo[3,2-c]pyridin-2-yl)methyl)-2-(3-(((1-(4-fluorophenyl)cyclopropyl)methyl)amino)-2-oxo-6-phenylpyrazin-1(2H)-yl)acetamide trifluoroacetate] yielded a Ki of less than 500 nM.

Work on CCOC(=O)CNc1ncc(-c2ccccc2)n(CC(=O)NCc2cc3cnccc3[nH]2)c1=O [Compound 117, Ethyl (4-(2-(((1H-pyrrolo[3,2-c]pyridin-2-yl)methyl)amino)-2-oxoethyl)-3-oxo-5-phenyl-3,4-dihydropyrazin-2-yl)glycinate] yielded a Ki of less than 500 nM.

Work on O=C(Cn1c(-c2ccc(Cl)s2)cnc(NCCc2ccccc2)c1=O)NCc1cc2cnccc2[nH]1 [Compound 89, N-((1H-Pyrrolo[3,2-c]Pyridin-2-yl)Methyl)-2-(6-(5-Chlorothiophen-2-yl)-2-Oxo-3-(Phenethylamino)Pyrazin-1(2H)-yl)Acetamide] yielded a Ki of less than 500 nM.

With Cn1cc(-c2cnc(NCCc3ccccc3)c(=O)n2CC(=O)NCc2cc3c(s2)CNCC3)cn1 [Compound 79] the Ki was less than 500 nM.

O=C(Cn1c(-c2ccc(C(F)(F)F)cc2)cnc(NCCc2ccccc2)c1=O)NCc1cc2cnccc2[nH]1 [Compound 21, N-((1H-Pyrrolo[3,2-c]Pyridin-2-yl)Methyl)-2-(2-Oxo-3-(Phenethylamino)-6-(4-(Trifluoromethyl)Phenyl)Pyrazin-1(2H)-yl)Acetamide, Trifluoroacetate] showed a Ki of less than 500 nM.

O=C(Cn1c(-c2ccccc2)cnc(NCc2ccc(F)c(F)c2)c1=O)NCc1cc2cnccc2[nH]1 [Compound 70, N-((1H-Pyrrolo[3,2-c]pyridin-2-yl)methyl)-2-(3-((3,4-difluorobenzyl)amino)-2-oxo-6-phenylpyrazin-1(2H)-yl)acetamide trifluoroacetate] was tested, and the Ki was less than 500 nM.

For NCc1cccc(-c2cnc(NCCc3ccccc3)c(=O)n2CC(=O)NCc2cc3cnccc3[nH]2)c1 [Compound 96, N-((1H-Pyrrolo[3,2-c]Pyridin-2-yl)Methyl)-2-(6-(3-(Aminomethyl)Phenyl)-2-Oxo-3-(Phenethylamino)Pyrazin-1(2H)-yl)Acetamide], the Ki was less than 500 nM.

With O=C(Cn1c(-c2cccc(C3(O)COC3)c2)cnc(NCCc2ccccc2)c1=O)NCc1cc2cnccc2[nH]1 [Compound 99, N-((1H-Pyrrolo[3,2-c]pyridin-2-yl)methyl)-2-(6-(3-(3-hydroxyoxetan-3-yl)phenyl)-2-oxo-3-(phenethylamino)pyrazin-1(2H)-yl)acetamide] the Ki was less than 500 nM.

Work on Cc1nc(N)ccc1CNC(=O)Cn1c(-c2ccccc2)c(Cl)nc(NCCc2ccccc2)c1=O [Compound 41, N-((6-Amino-2-Methylpyridin-3-yl)Methyl)-2-(5-Chloro-2-Oxo-3-(Phenethylamino)-6-Phenylpyrazin-1(2H)-yl)Acetamide] yielded a Ki of 500 to 2500 nM.

O=C(Cn1c(-c2ccccc2)cnc(N2CCC2)c1=O)NCc1cc2cnccc2[nH]1 [Compound 149, N-((1H-Pyrrolo[3,2-c]pyridin-2-yl)methyl)-2-(3-(azetidin-1-yl)-2-oxo-6-phenylpyrazin-1(2H)-yl)acetamide] gave a Ki of less than 500 nM.

Cn1cc(NS(=O)(=O)Cc2ccccc2)c(=O)n(CC(=O)NCc2ccc(C(=N)N)cc2)c1=O [Compound 37, N-(4-Carbamimidoylbenzyl)-2-(3-Methyl-2,6-Dioxo-5-((Phenylmethyl)Sulfonamido)-3,6-Dihydropyrimidin-1(2H)-yl)Acetamide, Trifluoroacetate] was tested, and the Ki was 500 to 2500 nM.

O=C(Cn1c(-c2cnn3c2CCC3)cnc(NCCc2ccccc2)c1=O)NCc1cc2cnccc2[nH]1 [Compound 115, N-((1H-Pyrrolo[3,2-c]pyridin-2-yl)methyl)-2-(6-(5,6-dihydro-4H-pyrrolo[1,2-b]pyrazol-3-yl)-2-oxo-3-(phenethylamino)pyrazin-1(2H)-yl)acetamide] was tested, and the Ki was less than 500 nM.

Reference: patent US12110288B2, “MASP-2 inhibitors and methods of use” (Omeros Corporation, priority 2019, dated 2024)
